Test [1] relates to V. dahliae microsclerotia. Briefly: Viability of V. dahliae microsclerotia buried in amended soil (test tube bioassay). The class given is cell-based, Verticillium dahliae. The following applies: for Ammonia level in soil coinciding with a rapid loss in the viability of microsclerotia: soil amended with MBM or SM. How it is done:
The viability of V. dahliae microsclerotia retrieved from soil was determined using the following experimental model system. […] Microsclerotia suspended in crushed silica sand was added to a nylon pouch which was then buried in the soil or suspended in the head space of each tube. Water was added to each tube to bring soil moisture to 0.33 bar tension. The tubes were then loosely capped, and placed in the dark at 24° C. On each date of analysis, the nylon pouches were retrieved and an Anderson air sampler used to impact the pouch contents onto a medium (soil-pectate-tergitol) selective for growth of V. dahliae. […] The levels of NH3, NO2^− and NO3^− in soil were determined at each sample date. […] The slurry was once again mechanically disrupted and its pH determined. The slurry was centrifuged and supernatant analyzed for total (NH3+NH4^+), (NHO2+NO2^−) and NO3^− using an ion chromatograph.

In test [2] the test system is V. dahliae MS.
Description: The germination of V. dahliae MS was determined using a setup similar to that described above for exposure of V. dahliae MS to NH3 in buffered solution. Exceptions being various amounts of 0.270 M NaNO2 stock solution were added (from 0 to 2.0 mL) to 40 mL of 0.02 M citric acid solution (set to pH 5.0 with NaOH (Perrin and Dempsey 1974)) and brought to 50 mL volume with the same citric acid solution. All experiments were done in triiplicate and repeated. Solutions were filter sterilized and 15 mL placed into sterile screw cap tubes (total capacity 15.5 mL). Immediately, V. dahliae MS were added to each tube, the tube closed, placed at 24° C. and in the dark and inverted twice daily. At 8 hours, 1 and 4 days, V. dahliae MS viability was determined. The concentration of HNO2 in solutions was estimated as described below. The effect of NO2^− on survival of V. dahliae MS was tested by adding various amounts of NaNO2 (0 to 53 mM NO2^−) to citric acid buffer and pH set to 4.0, 5.0 and 6.0. The effect of type of NO2^− salt on survival of V. dahliae MS was tested by adding KNO2 or NaCl instead of NaNO2 to citric acid buffer (set to pH 5.0). […]
Various concentrations of HNO2 were generated in citric acid buffer solution at pH 4.0, 5.0 or 6.0 with NaNO2 added. […] Microsclerotia survival was determined as described previously for NH3 in glycine buffer.
Test [3] deals with V. dahliae MS. To be noted: sealer jars, 30 mL solution, four days, room temperature.
Description: Exposure of V. dahliae MS to HNO2 gas was done using a similar procedure described above. To sealer jars (250 mL), 50 mL of a prepared solution of NaNO2 in citric acid solution was added. A V. dahliae MS bag was suspended in the atmosphere of the jar. The jar was sealed, and placed at 24° C. in the dark for 4 days. Thereafter the bags were retrieved and the viability of V. dahliae MS determined. This experiment was repeated and done in triplicate.
Various amounts of HNO2 in atmosphere were subjected to microsclerotia by suspending microsclerotia in sealer jars containing 30 mL of citric acid HNO2 buffer solution and incubated in the dark at room temperature for four days.
Test [4] concerns V. dahliae MS. To be noted: glycine buffer pH 8.6, exposure of four days.
Description: Various concentrations of NH3 were generated in glycine or tricine buffer solution at pH 8.6 with NH4Cl or (NH4)2SO4 added. A 15 mL test tube was filled with appropriate buffer and NH4^+ solution, microsclerotia added, the tube capped, then placed in the dark at 24° C. and the tubes inverted daily to suspend the microsclerotia in solution. Microsclerotia survival was determined by emptying contents of the tube into a Buchner funnel, the microsclerotia being retained on Whatman #42 filter paper, rinsed with distilled water, transferred to SPT medium by placing the filter paper in contact with the agar medium and removed leaving the microsclerotia adhering to the medium.
The final volume was brought to 50 mL with the same glycine solution. Solutions were then sterilized by filtration through a 0.22 um pore size filter and 15 mL placed into three replicate sterile screw cap tubes (total capacity 15.5 mL) About 200 V. dahliae MS were immediately added to each tube and the tube closed and placed at 24° C. and in the dark. Tubes were inverted every 12 hours to mix and suspend V. dahliae MS in the solution. […] At 8 hours, 1 and 4 days, the contents of each tube was passed onto a Buchner funnel containing sterile filter paper (Whatman #42). […] The viability of V. dahliae MS was determined as the percentage of MS forming colonies out of 50 counted per replicate dish. […]
Test [5] concerns V. dahliae MS. The following applies: agar medium, germination recorded two weeks later.
Description: NH3 was generated in SPT medium by addition of various concentrations of NH4Cl to the medium and varying the pH of the medium (7, 7.6, 8 and 8.5). Immediately following cooling and hardening of the medium, 25 microsclerotia per Petri dish were transferred individually with a needle and germination recorded two weeks later.
Various amountes of NH4Cl salt (to 0, 25, 50, 100 and 200 mM) was added to soil peclate medium (SPT) and the pH of the medium adjusted to 7.0, 7.6, 8.0 or 8.5 by addition of 5 M NaOH. For each level of NH4Cl and pH, three replicate dishes were poured. The agar was allowed to solidify for 2 hours and immediately thereafter 25 V. dahliae MS were individually transferred to each dish using a sterile hypodermic needle. The dishes were wrapped with Parafilm (American National Can, Neenah Wis.) to limit loss of NH3 by volatilization, and incubated for two weeks at 24° C. in the dark. The viability of V. dahliae MS was determined as percent of total MS forming colonies. The concentration of NH3 in medium was estimated as described below and ranged from 0 to 31 mM. The pH of medium after hardening and two weeks after incubation was tested using pH test strips (ColorpHast pH 5-10; EM Science, Gibbstown N.J.) and was within 0.5 units (limit of resolution of the test strips) of that set at the start.

Like-named read-outs stand apart in the source and are kept apart here.

`N.N.O=S(=O)(O)O` [(NH4)2SO4]: the “kill of microsclerotia” value in test [1] (400 or 800 mg N kg^−1, air-dried Beauseart soil stored 1.5 years) is “failed to accumulate HNO2 and kill microsclerotia”; in test [1] (400 or 800 mg N kg^−1, recently collected Mackenzie soil), “death of microsclerotia”.
Regarding `O=NO` [HNO2, nitrous acid], in test [2], the “HNO2 concentration sufficient to kill all microsclerotia” value is “about 0.025 mM” and the “calculated HNO2 concentration required to kill all microsclerotia” value is on record as “above 0.10 mM”. The “HNO2 solution concentration above which suspended microsclerotia died in atmosphere” value in test [3] turned out to be 0.10 mM.
`N` [NH3, Ammonia]: the “NH3 concentration preventing germination of microsclerotia” value is reported as “greater than 5 mM” in test [4] and more than 3 mM in test [5]. Moreover, the “NH3 accumulation consistently accompanied with a rapid decline in the viability of microsclerotia in soil” value in test [1] (in soil) is reported as “greater than 10 mM”. Further, the “Ammonia level in soil coinciding with a rapid loss in the viability of microsclerotia” value was more than 20 mM in test [1] and more than 65 mg N kg^−1 soil in test [1] (listed as Ammonia).
`N.O` [NH4OH, ammonium hydroxide]: the “addition sufficient to induce levels of NH3 sufficient to kill microsclerotia” value in test [1] (Thorndale or Beauseart soil, incubated four days (data not shown)) is “about 1800 mg NH4OH—N kg^−1”.

The record behind these values is patent US20020122830A1, “Method for the treatment of a soil containing soilborne pathogens” (priority 2000, published 2002).
